# Source: PubChem BioAssay AID330 (DTP/NCI, 2004)
# Values joined by “and” are separate entries in the source; they are usually repeats but may differ in a detail not shown here. Equal entries are not always repeated. Inconclusive results and toxic doses are left out.
# System: P388 leukemia ip, CD2F1 mice, survival T/C
# Experiment: NCI In Vivo Anticancer Drug Screen. Data for tumor model P388 Leukemia (intraperitoneal) in CD2F1 (CDF1) mice
# Conditions: endpoint: median survival time, higher = longer survival
# How it was run: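 Mice carrying the transplanted tumor received test compound or vehicle. Survival was recorded in each group, and the value is the treated-group measurement divided by that of the vehicle-treated control group.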
# [1] = dose: 1.0 mg/kg/injection, schedule: Q01DX009 (ip), vehicle: Klucel (hydroxypropylcellulose) (HPC)
# [2] = dose: 50.0 mg/kg/injection, schedule: Q01DX001 (ip), vehicle: saline with Tween-80
# [3] = dose: 100.0 mg/kg/injection, schedule: Q01DX001 (ip), vehicle: saline with Tween-80
# [4] = dose: 12.5 mg/kg/injection, schedule: Q01DX009 (ip), vehicle: water
# [5] = dose: 25.0 mg/kg/injection, schedule: Q01DX009 (ip), vehicle: water
# [6] = dose: 50.0 mg/kg/injection, schedule: Q01DX005 (ip), vehicle: saline with Tween-80
# [7] = dose: 50.0 mg/kg/injection, schedule: Q01DX005 (ip), vehicle: Klucel (hydroxypropylcellulose) (HPC)
# [8] = dose: 100.0 mg/kg/injection, schedule: Q01DX005 (ip), vehicle: Klucel (hydroxypropylcellulose) (HPC)
# [9] = dose: 200.0 mg/kg/injection, schedule: Q01DX005 (ip), vehicle: Klucel (hydroxypropylcellulose) (HPC)
compound,measurement,setting,value
Nc1nc(N)c2nc(CN(CCO)c3ccc(C(=O)NC(CCC(=O)O)C(=O)O)cc3)cnc2n1 (centres undefined),T/C,[1],190 % of control
same,T/C,"dose: 1.2 mg/kg/injection, schedule: Q01DX009 (ip), vehicle: Klucel (hydroxypropylcellulose) (HPC)",153 % of control
same,T/C,"dose: 1.8 mg/kg/injection, schedule: Q01DX009 (ip), vehicle: Klucel (hydroxypropylcellulose) (HPC)",181 % of control
same,T/C,"dose: 2.0 mg/kg/injection, schedule: Q01DX009 (ip), vehicle: Klucel (hydroxypropylcellulose) (HPC)",205 % of control
same,T/C,"dose: 2.6 mg/kg/injection, schedule: Q01DX009 (ip), vehicle: Klucel (hydroxypropylcellulose) (HPC)",195 % of control
same,T/C,"dose: 4.0 mg/kg/injection, schedule: Q01DX009 (ip), vehicle: Klucel (hydroxypropylcellulose) (HPC)",204 % of control and 223 % of control
same,T/C,"dose: 6.0 mg/kg/injection, schedule: Q01DX009 (ip), vehicle: Klucel (hydroxypropylcellulose) (HPC)",92 % of control
Clc1cc2[nH]ccc2c(Cl)n1,T/C,[2],90 % of control
same,T/C,[3],92 % of control
c1cnc2c3cnc4sccc4c3nn2c1,T/C,"dose: 100.0 mg/kg/injection, schedule: Q04DX002 (ip), vehicle: saline with Tween-80",93 % of control
same,T/C,"dose: 200.0 mg/kg/injection, schedule: Q04DX002 (ip), vehicle: saline with Tween-80",88 % of control
same,T/C,"dose: 400.0 mg/kg/injection, schedule: Q04DX002 (ip), vehicle: saline with Tween-80",93 % of control
O=C(CCl)NC(Cc1ccc(N(CCCl)CCCl)cc1)C(=O)O (centres undefined),T/C,"dose: 0.25 mg/kg/injection, schedule: Q01DX009 (ip), vehicle: Klucel (hydroxypropylcellulose) (HPC)",113 % of control and 96 % of control
same,T/C,"dose: 0.5 mg/kg/injection, schedule: Q01DX009 (ip), vehicle: Klucel (hydroxypropylcellulose) (HPC)",109 % of control and 115 % of control
same,T/C,[1],102 % of control and 115 % of control
same,T/C,"dose: 2.0 mg/kg/injection, schedule: Q01DX001 (ip), vehicle: Klucel (hydroxypropylcellulose) (HPC)",107 % of control
same,T/C,"dose: 4.0 mg/kg/injection, schedule: Q01DX001 (ip), vehicle: Klucel (hydroxypropylcellulose) (HPC)",108 % of control
same,T/C,"dose: 8.0 mg/kg/injection, schedule: Q01DX001 (ip), vehicle: Klucel (hydroxypropylcellulose) (HPC)",119 % of control
same,T/C,"dose: 128.0 mg/kg/injection, schedule: Q01DX009 (ip), vehicle: Klucel (hydroxypropylcellulose) (HPC)",166 % of control
same,T/C,"dose: 256.0 mg/kg/injection, schedule: Q01DX009 (ip), vehicle: Klucel (hydroxypropylcellulose) (HPC)",223 % of control
O=C(O)C1(Br)CC2(C1)CC(Br)(C(=O)O)C2 (centres undefined),T/C,"dose: 100.0 mg/kg/injection, schedule: Q04DX002 (ip), vehicle: other",94 % of control
same,T/C,"dose: 200.0 mg/kg/injection, schedule: Q04DX002 (ip), vehicle: other",91 % of control
same,T/C,"dose: 400.0 mg/kg/injection, schedule: Q04DX002 (ip), vehicle: other",103 % of control
C/C1=C\CC/C(C)=C/CC/C(C)=C/CC(C)(C)/C=C/C1,T/C,"dose: 25.0 mg/kg/injection, schedule: Q01DX009 (ip), vehicle: saline + Tween-80 + alcohol",112 % of control
same,T/C,"dose: 50.0 mg/kg/injection, schedule: Q01DX009 (ip), vehicle: saline + Tween-80 + alcohol",112 % of control
same,T/C,"dose: 100.0 mg/kg/injection, schedule: Q01DX009 (ip), vehicle: saline + Tween-80 + alcohol",111 % of control
COc1ccc2cc3cc[n+](C)cc3cc2c1OC,T/C,[4],114 % of control
same,T/C,[5],119 % of control
CC(=O)N(Cc1ccccc1)c1nccs1,T/C,[6],104 % of control
same,T/C,"dose: 100.0 mg/kg/injection, schedule: Q01DX005 (ip), vehicle: saline with Tween-80",99 % of control
same,T/C,"dose: 200.0 mg/kg/injection, schedule: Q01DX005 (ip), vehicle: saline with Tween-80",90 % of control
CCOC(=O)N1C(=O)C2C3C=CC(C2C1=O)C1C2C(=O)N(C(=O)OCC)C(=O)C2C31 (centres undefined),T/C,"dose: 25.0 mg/kg/injection, schedule: Q01DX009 (ip), vehicle: Klucel (hydroxypropylcellulose) (HPC)",116 % of control and 124 % of control
same,T/C,"dose: 50.0 mg/kg/injection, schedule: Q01DX009 (ip), vehicle: Klucel (hydroxypropylcellulose) (HPC)",121 % of control
same,T/C,"dose: 100.0 mg/kg/injection, schedule: Q01DX009 (ip), vehicle: Klucel (hydroxypropylcellulose) (HPC)",152 % of control
CCCCC(=O)N1SC(NC(=O)OC)=Nc2ccccc21,T/C,[7],101 % of control
same,T/C,[8],100 % of control
same,T/C,[9],109 % of control
COc1cc2c(cc1OC)C(N)CCC2 (centres undefined),T/C,"dose: 6.25 mg/kg/injection, schedule: Q01DX009 (ip), vehicle: water",104 % of control
same,T/C,[4],96 % of control
same,T/C,[5],99 % of control
same,T/C,"dose: 50.0 mg/kg/injection, schedule: Q01DX009 (ip), vehicle: water",96 % of control
same,T/C,"dose: 100.0 mg/kg/injection, schedule: Q01DX009 (ip), vehicle: water",101 % of control
COC(=O)c1cc(=O)nc(NN=C2c3ccccc3-c3ccccc32)s1,T/C,"dose: 12.5 mg/kg/injection, schedule: Q01DX005 (ip), vehicle: saline with Tween-80",97 % of control
same,T/C,"dose: 25.0 mg/kg/injection, schedule: Q01DX005 (ip), vehicle: saline with Tween-80",94 % of control
same,T/C,[6],88 % of control and 92 % of control
CCCCC#CC(=O)O,T/C,"dose: 50.0 mg/kg/injection, schedule: Q01DX009 (ip), vehicle: saline",103 % of control
same,T/C,"dose: 100.0 mg/kg/injection, schedule: Q01DX009 (ip), vehicle: saline",94 % of control
C=C(COC(C)=O)[C@H](C)C(=O)C1OCOC(C2CC(=O)NC(=O)C2)[C@@H]1OC(C)=O (some centres undefined),T/C,"dose: 0.01 mg/kg/injection, schedule: Q01DX009 (ip), vehicle: distilled water + alcohol",102 % of control
same,T/C,"dose: 0.03 mg/kg/injection, schedule: Q01DX009 (ip), vehicle: distilled water + alcohol",102 % of control
same,T/C,"dose: 0.06 mg/kg/injection, schedule: Q01DX009 (ip), vehicle: distilled water + alcohol",102 % of control
same,T/C,"dose: 0.12 mg/kg/injection, schedule: Q01DX009 (ip), vehicle: distilled water + alcohol",109 % of control
COc1cc2c(cc1OC)C(CS(C)=O)Cc1cc(OC)c(OC)cc1N(C)CCC2 (centres undefined),T/C,"dose: 100.0 mg/kg/injection, schedule: Q04DX003 (ip), vehicle: saline with Tween-80",93 % of control
same,T/C,"dose: 200.0 mg/kg/injection, schedule: Q04DX003 (ip), vehicle: saline with Tween-80",87 % of control
same,T/C,"dose: 400.0 mg/kg/injection, schedule: Q04DX003 (ip), vehicle: saline with Tween-80",100 % of control
N#Cc1ccc(N=Cc2ccc(C=Nc3ccc(C#N)c(C#N)c3)cc2)cc1C#N,T/C,"dose: 12.5 mg/kg/injection, schedule: Q01DX009 (ip), vehicle: saline with Tween-80",93 % of control
same,T/C,"dose: 25.0 mg/kg/injection, schedule: Q01DX009 (ip), vehicle: saline with Tween-80",104 % of control
same,T/C,"dose: 50.0 mg/kg/injection, schedule: Q01DX009 (ip), vehicle: saline with Tween-80",88 % of control
same,T/C,"dose: 100.0 mg/kg/injection, schedule: Q01DX009 (ip), vehicle: saline with Tween-80",87 % of control
same,T/C,"dose: 200.0 mg/kg/injection, schedule: Q01DX009 (ip), vehicle: saline with Tween-80",97 % of control
CCOC(=O)c1ccc(N=Nc2c(O)c(C(=O)OCC)c(O)c3ccccc23)cc1O,T/C,"dose: 100.0 mg/kg/injection, schedule: Q01DX001 (ip), vehicle: distilled water + alcohol",91 % of control
same,T/C,"dose: 200.0 mg/kg/injection, schedule: Q01DX001 (ip), vehicle: distilled water + alcohol",86 % of control
same,T/C,"dose: 400.0 mg/kg/injection, schedule: Q01DX001 (ip), vehicle: distilled water + alcohol",86 % of control
CC(C)S(=O)c1ccccc1 (centres undefined),T/C,[2],103 % of control
same,T/C,[3],95 % of control
same,T/C,"dose: 200.0 mg/kg/injection, schedule: Q01DX001 (ip), vehicle: saline with Tween-80",95 % of control
O=C(N/N=C/c1ccccc1[O-])c1ccccc1O.O=C(N/N=C/c1ccccc1[O-])c1ccccc1O.[Mn+2],T/C,[7],100 % of control
same,T/C,[8],103 % of control
same,T/C,[9],103 % of control
CCC1=C[C@@H]2C[C@](C(=O)OC)(c3cc4c(cc3OC)N(C)[C@H]3[C@@](O)(C(=O)NC)[C@H](OC(C)=O)[C@]5(CC)C=CCN6CC[C@]43[C@@H]65)c3[nH]c4ccccc4c3CCN(C1)[C@@H]2O,T/C,"dose: 0.39 mg/kg/injection, schedule: Q01DX001 (ip), vehicle: water",123 % of control
same,T/C,"dose: 1.56 mg/kg/injection, schedule: Q01DX001 (ip), vehicle: water",151 % of control
same,T/C,"dose: 3.13 mg/kg/injection, schedule: Q01DX001 (ip), vehicle: water",152 % of control and 158 % of control
CCN1C(NN)=NS(=O)(=O)c2ccccc21,T/C,"dose: 60.0 mg/kg/injection, schedule: Q01DX005 (ip), vehicle: saline with Tween-80",103 % of control
same,T/C,"dose: 120.0 mg/kg/injection, schedule: Q01DX005 (ip), vehicle: saline with Tween-80",106 % of control
same,T/C,"dose: 240.0 mg/kg/injection, schedule: Q01DX005 (ip), vehicle: saline with Tween-80",94 % of control
